Broadly, the IC50 is the point on the concentration scale where inhibition reaches its midpoint. Lower therefore signals inhibition by little substance.

The values below come from ChEMBL document CHEMBL2074483, “Multidrug-resistance protein 5 is a multispecific organic anion transporter able to transport nucleotide analogs” (Proc Natl Acad Sci U S A, 2000).

The target of data set [1] is T1, ATP-binding cassette sub-family C member 5 (Homo sapiens, UniProt O15440). Description: TP_TRANSPORTER: efflux in MRP5-expressing MDCKII cells. It is filed as functional, cell-based. As to conditions: dog, mdck-ii.
Data set [2] addresses T1, ATP-binding cassette sub-family C member 5. Description: TP_TRANSPORTER: inhibition of PMEA efflux (PMEA: 1 uM) in MRP5-expressing MDCKII cells. It is filed as functional, cell-based, MDCK-II.

T1 sequence (O15440 whole entry): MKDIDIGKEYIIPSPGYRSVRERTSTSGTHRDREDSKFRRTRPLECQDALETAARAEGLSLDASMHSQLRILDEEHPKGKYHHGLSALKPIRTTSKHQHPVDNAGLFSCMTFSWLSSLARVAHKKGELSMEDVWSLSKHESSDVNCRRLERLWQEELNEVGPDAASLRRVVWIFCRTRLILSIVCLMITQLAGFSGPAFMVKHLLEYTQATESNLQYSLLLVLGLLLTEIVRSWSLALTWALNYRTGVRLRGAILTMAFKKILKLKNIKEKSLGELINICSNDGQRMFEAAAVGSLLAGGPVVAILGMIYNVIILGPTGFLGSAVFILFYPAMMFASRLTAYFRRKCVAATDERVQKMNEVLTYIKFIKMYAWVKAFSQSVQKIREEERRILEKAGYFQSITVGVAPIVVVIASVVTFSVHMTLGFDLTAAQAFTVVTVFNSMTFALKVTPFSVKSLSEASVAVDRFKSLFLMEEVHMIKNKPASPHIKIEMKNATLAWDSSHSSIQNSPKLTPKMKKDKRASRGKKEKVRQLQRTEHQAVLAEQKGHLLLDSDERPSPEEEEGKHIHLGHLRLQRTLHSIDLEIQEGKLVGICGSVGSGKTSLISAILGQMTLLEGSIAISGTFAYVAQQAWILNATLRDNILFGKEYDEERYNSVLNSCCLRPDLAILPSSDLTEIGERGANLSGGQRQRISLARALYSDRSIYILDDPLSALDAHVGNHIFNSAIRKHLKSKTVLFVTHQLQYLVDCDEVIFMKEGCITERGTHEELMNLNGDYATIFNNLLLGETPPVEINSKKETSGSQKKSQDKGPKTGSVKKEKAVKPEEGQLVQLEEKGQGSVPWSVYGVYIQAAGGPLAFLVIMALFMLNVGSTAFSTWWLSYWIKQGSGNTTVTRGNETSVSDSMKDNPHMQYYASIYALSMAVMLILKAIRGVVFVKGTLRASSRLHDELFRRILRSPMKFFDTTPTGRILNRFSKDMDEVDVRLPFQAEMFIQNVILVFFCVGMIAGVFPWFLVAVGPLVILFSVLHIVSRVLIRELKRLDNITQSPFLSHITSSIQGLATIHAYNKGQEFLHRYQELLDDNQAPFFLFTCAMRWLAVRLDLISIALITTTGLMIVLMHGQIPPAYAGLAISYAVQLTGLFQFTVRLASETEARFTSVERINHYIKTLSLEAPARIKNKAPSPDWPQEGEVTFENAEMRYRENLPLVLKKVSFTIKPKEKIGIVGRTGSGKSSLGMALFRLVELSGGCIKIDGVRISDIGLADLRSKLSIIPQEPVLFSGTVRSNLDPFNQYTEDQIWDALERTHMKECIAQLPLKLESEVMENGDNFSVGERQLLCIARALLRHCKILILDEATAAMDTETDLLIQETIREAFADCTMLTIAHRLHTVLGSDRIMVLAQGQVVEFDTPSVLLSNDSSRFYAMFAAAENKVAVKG

In the case of `Nc1ncnc2c1ncn2CCOCP(=O)(O)O` [ADEFOVIR], in data set [1], the Activity result was “substrate [+]”.
With `Sc1ncnc2nc[nH]c12` [MERCAPTOPURINE ANHYDROUS], the Activity entry in data set [1] is “substrate [+]”.
For `O=C1C(CC[S+]([O-])c2ccccc2)C(=O)N(c2ccccc2)N1c1ccccc1` (stereo not drawn) [SULFINPYRAZONE], in data set [2], the IC50 was below 100 µM.
